Assay results from patent US11034661B2, “Substituted N′-hydroxycarbamimidoyl-1,2,5-oxadiazole compounds as indoleamine 2,3-dioxygenase IDO inhibitors” (Merck Sharp & Dohme Corp., priority 2017, dated 2021).
pIC50: −log10 of the molar value.

Experiments:
[1] = biological target: IDO1 in Hela cells stimulated with IFNγ (Homo sapiens (Human), UniProt P14902); experiment: IDO1 Cellular Assay in Hela Cells Stimulated with IFNγ; assay type: cell-based; details: IFNγ 100 ng/mL, about 48 hours, fluorescence readout, read-out: IDO1 HELA Cell Assay, IC50
Chain of IDO1 in Hela cells stimulated with IFNγ (P14902 whole entry): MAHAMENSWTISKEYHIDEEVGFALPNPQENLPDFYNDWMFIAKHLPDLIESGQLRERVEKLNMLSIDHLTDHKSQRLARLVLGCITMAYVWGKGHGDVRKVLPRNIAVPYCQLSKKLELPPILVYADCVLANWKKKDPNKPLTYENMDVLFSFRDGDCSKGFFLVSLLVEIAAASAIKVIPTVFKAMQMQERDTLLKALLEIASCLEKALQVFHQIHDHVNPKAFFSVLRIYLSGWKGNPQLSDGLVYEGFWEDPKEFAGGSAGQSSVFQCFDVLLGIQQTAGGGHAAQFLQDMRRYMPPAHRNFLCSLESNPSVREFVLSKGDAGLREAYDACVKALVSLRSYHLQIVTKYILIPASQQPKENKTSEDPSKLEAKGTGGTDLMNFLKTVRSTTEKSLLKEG
Experimental: IDO1 Cellular Assay in Hela Cells Stimulated with IFNγ
Hela cells were cultured in complete Hela culture medium (90% EMEM, 10% heat-inactivated fetal bovine serum) and expanded to about 1×10^9 cells. The cells were then collected and frozen down at 10×10^6 cells/vial in 1 mL frozen medium (90% complete Hela culture medium, 10% DMSO)
Compounds to be tested were serially diluted in ten 3-fold steps in DMSO starting from 10 mM DMSO stocks in Echo low volume plate(s). Compound dilutions or DMSO alone were then dispensed from the dilution plate(s) into Greiner black 384-well assay plate(s) (catalog #781086, 50 nL/well) using an Echo 550 acoustic liquid handler (Labcyte).
Frozen Hela cells were thawed and transferred into Hela assay medium (99% complete Hela culture medium, 1% Pen/Strep) with 20 mL medium/vial of cells. The cells were spun down at 250 g in a table top centrifuge for 5 min and suspended in same volume of Hela assay medium. The cells were then counted and adjusted to a density of 2×10^5 cells/ml in Hela assay medium. Sterile L-tryptophan were added to the cells with final concentration of 300 uM L-tryptophan. A small aliquot (2 mL/plate) of Hela cells were set aside and were not treated with IFNγ, to serve as the Max-E control. The rest of Hela cells were added with sterile IFNγ (Cat #285-IF, R & D systems) with a final concentration of 100 ng/mL.
Hela cells with and without IFNγ were dispensed to the respective wells of 384-well assay plates containing the compounds. The plates were incubated for about 48 hours at a 37° C., 5% CO2 incubator. Afterwards, 12 μL of 0.5 M methyl isonipecotate in dimethyl sulfoxide were added into each well and the plates were sealed and incubated at 37° C. without CO2 overnight. The plates were centrifuged for 1 min at 200×g. The resulting fluorescence was measured in a Spectramax plate reader (Molecular Devices) with a 400 nm excitation filter and a 510 nm emission filter.
The fluorescence intensity of each well was corrected for the background observed in wells with non-IFNγ-treated cells and was expressed as a fraction of the intensity observed in wells of IFNγ-treated cells and DMSO only. Potencies were calculated by linear least squares fit to the four parameter logistic IC50 equation.

[2] = biological target: HIS-tagged IDO1 protein (Homo sapiens (Human), UniProt P14902); experiment: IDO1 Enzyme Assay; assay type: biochemical; details: recombinant IDO1 40 nM, tryptophan substrate, fluorescence readout
Chain of HIS-tagged IDO1 protein (P14902 whole entry): as above
Experimental: Biological Assays IDO1 Enzyme Assay
Compounds to be tested were serially diluted in ten 3-fold steps in DMSO starting from 10 mM DMSO stocks. Compound dilutions or DMSO alone were then dispensed from the dilution plate into a Greiner black 384-well assay plate (catalog #781086) using an Echo 555 acoustic liquid handler (Labcyte).
HIS-tagged IDO1 protein was recombinantly expressed in Escherichia coli using ZYP5052 autoinduction media supplemented with 500 μM delta aminolevulinic acid for 48 hours at 16 degrees Celsius. IDO1 protein was purified using Ni^2+-affinity resin and size exclusion chromatography. Purified protein was then diluted in assay buffer (50 mM Tris pH 7.0, 1% glycerol, 20 μM methylene blue, 0.05% Tween-20, 20 mM sodium ascorbate, 100 units/mL catalase to obtain a final IDO1 concentration of 40 nM. IDO1 solution […] or buffer alone […] was dispensed to wells of the assay plate using a BioRAPTR liquid dispenser (Beckman Coulter). Assay plates containing compound and IDO1 enzyme were incubated at room temperature for 30 minutes. Afterwards, 10 μL of 400 μM tryptophan in assay buffer were added to each well of the assay plate using a BioRAPTR liquid dispenser. Plates were incubated at room temperature for 60 minutes and reactions were quenched by addition of 10 μL of 0.5 M methyl isonipecotate in dimethyl sulfoxide. Plates were sealed and incubated at 37 degrees Celsius for 4 hours or 50 degrees Celsius for 2 hours. The plates are allowed to cool and then centrifuged for 1 minute at 1000×g. The resulting fluorescence was measured in an Envision plate reader (Perkin Elmer) with a 400/25 nm excitation filter and an 510/20 nm emission filter.
Potencies were calculated by linear least squares fit to the four parameter logistic IC50 equation.

Row | Compound | pIC50 [1] | pIC50 [2]
1 | O=C(COc1nonc1/C(=N/O)N[C@H]1Cc2ccc(F)cc21)N1CC[C@@H](O)C1 [Example 44, N-[(7S)-4-fluorobicyclo[4.2.0]octa-1,3,5-trien-7-yl]-N′-hydroxy-4-{2-[(3R)-3-hydroxypyrrolidin-1-yl]-2-oxoethoxy}-1,2,5-oxadiazole-3-carboximidamide] | 5.88 | 6.06
2 | CC(=O)NC[C@H](C)Oc1nonc1/C(=N/O)N[C@H]1Cc2ccc(F)cc21 [Example 40, N-{(2S)-2-[(4-{N-[(7S)-4-fluorobicyclo[4.2.0]octa-1,3,5-trien-7-yl]-N′-hydroxycarbamimidoyl}-1,2,5-oxadiazol-3-yl)oxy]propyl}acetamide] | 5.99 | 5.62
3 | CC(=O)N[C@H](CO)COc1nonc1/C(=N/O)N[C@H]1Cc2ccc(F)cc21 [Example 51, N-{(2R)-1-[(4-{N-[(7S)-4-fluorobicyclo[4.2.0]octa-1,3,5-trien-7-yl]-N′-hydroxycarbamimidoyl}-1,2,5-oxadiazol-3-yl)oxy]-3-hydroxypropan-2-yl}acetamide] | 5.87 | 5.97
4 | CC(C)(O)C(=O)N[C@H]1C[C@@H](Oc2nonc2/C(=N/O)N[C@H]2Cc3ccc(F)cc32)C1 [Example 66, N-((1R,3s)-3-((4-((Z)-N-((S)-4-fluorobicyclo[4.2.0]octa-1(6),2,4-trien-7-yl)-N′-hydroxycarbamimidoyl)-1,2,5-oxadiazol-3-yl)oxy)cyclobutyl)-2-hydroxy-2-methylpropanamide] | 6.54 | 6.78
5 | O=C(NCCOc1nonc1/C(=N/O)N[C@H]1Cc2ccc(F)cc21)c1nc[nH]n1 [Example 22, N-{2-[(4-{N-[(7S)-4-fluorobicyclo[4.2.0]octa-1,3,5-trien-7-yl]-N′-hydroxycarbamimidoyl}-1,2,5-oxadiazol-3-yl)oxy]ethyl}-1H-1,2,4-triazole-3-carboxamide] | 6.51 | 6.58
6 | NC(=O)NCCCOc1nonc1/C(=N/O)N[C@H]1Cc2ccc(F)cc21 [Example 18, 4-[3-(carbamoylamino)propoxy]-N-[(7S)-4-fluorobicyclo[4.2.0]octa-1,3,5-trien-7-yl]-N′-hydroxy-1,2,5-oxadiazole-3-carboximidamide] | 6.52 | 7.13
7 | NS(=O)(=O)CCCOc1nonc1/C(=N/O)N[C@H]1Cc2ccc(F)cc21 [Example 29, N-[(7S)-4-fluorobicyclo[4.2.0]octa-1,3,5-trien-7-yl]-N′-hydroxy-4-(3-sulfamoylpropoxy)-1,2,5-oxadiazole-3-carboximidamide] | 6.83 | 7.14
8 | NS(=O)(=O)NCCOc1nonc1/C(=N/O)N[C@H]1CCc2ccc(F)cc21 [Example 24, N-[(1S)-6-fluoro-2,3-dihydro-1H-inden-1-yl]-N′-hydroxy-4-[2-(sulfamoylamino)ethoxy]-1,2,5-oxadiazole-3-carboximidamide] | 5.88 | 6.38
9 | CC(C)(O)CNC(=O)COc1nonc1/C(=N/O)NC1Cc2ccc(F)cc21 (stereo not shown) [Example 14, 2-({4-[N-(4-fluorobicyclo[4.2.0]octa-1,3,5-trien-7-yl)-N′-hydroxycarbamimidoyl]-1,2,5-oxadiazol-3-yl}oxy)-N-(2-hydroxy-2-methylpropyl)acetamide] | 6.11 | 6.01
10 | CC(=O)NC[C@H](O)COc1nonc1/C(=N/O)N[C@H]1Cc2ccc(F)cc21 [Example 53, N-{(2S)-3-[(4-{N-[(7S)-4-fluorobicyclo[4.2.0]octa-1,3,5-trien-7-yl]-N′-hydroxycarbamimidoyl}-1,2,5-oxadiazol-3-yl)oxy]-2-hydroxypropyl}acetamide] | 6.48 | 6.67
11 | C[C@@H](O)C(=O)N1CC(Oc2nonc2/C(=N/O)N[C@H]2Cc3ccc(F)cc32)C1 [Example 61, N-((S)-4-fluorobicyclo[4.2.0]octa-1(6),2,4-trien-7-yl)-N′-hydroxy-4-((1-((R)-2-hydroxypropanoyl)azetidin-3-yl)oxy)-1,2,5-oxadiazole-3-carboximidamide] | 7.00 | 7.05
12 | O=C(CO)N1CCC(Oc2nonc2/C(=N/O)N[C@H]2Cc3ccc(F)cc32)CC1 [Example 50, N-[(7S)-4-fluorobicyclo[4.2.0]octa-1,3,5-trien-7-yl]-N′-hydroxy-4-{[1-(hydroxyacetyl)piperidin-4-yl]oxy}-1,2,5-oxadiazole-3-carboximidamide] | 6.08 | 6.29
13 | O=C(NCCOc1nonc1/C(=N/O)N[C@H]1Cc2ccc(F)cc21)[C@H](O)CO [Example 20, (2R)-N-{2-[(4-{N-[(7S)-4-fluorobicyclo[4.2.0]octa-1,3,5-trien-7-yl]-N′-hydroxycarbamimidoyl}-1,2,5-oxadiazol-3-yl)oxy]ethyl}-2,3-dihydroxypropanamide] | 5.63 | 6.52
14 | CC(=O)N[C@H]1C[C@H](Oc2nonc2/C(=N/O)N[C@H]2Cc3ccc(F)cc32)C1 [Example 37, N-{trans-3-[(4-{N-[(7S)-4-fluorobicyclo[4.2.0]octa-1,3,5-trien-7-yl]-N′-hydroxycarbamimidoyl}-1,2,5-oxadiazol-3-yl)oxy]cyclobutyl}acetamide] | 7.04 | 7.08
15 | O=C(CO)N1CCC[C@@H]1COc1nonc1/C(=N/O)N[C@H]1Cc2ccc(F)cc21 [Example 58, N-[(7S)-4-fluorobicyclo[4.2.0]octa-1,3,5-trien-7-yl]-N′-hydroxy-4-{[(2R)-1-(hydroxyacetyl)pyrrolidin-2-yl]methoxy}-1,2,5-oxadiazole-3-carboximidamide] | 5.87 | 5.83
16 | O=C(COc1nonc1/C(=N/O)N[C@H]1Cc2ccc(F)cc21)NC[C@@H](O)CO [Example 16, N-[(2R)-2,3-dihydroxypropyl]-2-[(4-{N-[(7S)-4-fluorobicyclo[4.2.0]octa-1,3,5-trien-7-yl]-N′-hydroxycarbamimidoyl}-1,2,5-oxadiazol-3-yl)oxy]acetamide] | 6.29 | 6.35
17 | O=C(COc1nonc1/C(=N/O)N[C@H]1Cc2ccc(F)cc21)N1CC[C@H](O)C1 [Example 45, N-[(7S)-4-fluorobicyclo[4.2.0]octa-1,3,5-trien-7-yl]-N′-hydroxy-4-{2-[(3S)-3-hydroxypyrrolidin-1-yl]-2-oxoethoxy}-1,2,5-oxadiazole-3-carboximidamide] | 5.89 | 6.00
18 | C[C@@H](CNS(N)(=O)=O)Oc1nonc1/C(=N/O)N[C@H]1Cc2ccc(F)cc21 [Example 67, (Z)-N-((S)-4-fluorobicyclo[4.2.0]octa-1(6),2,4-trien-7-yl)-N′-hydroxy-4-(((S)-1-(sulfamoylamino)propan-2-yl)oxy)-1,2,5-oxadiazole-3-carboximidamide] | 6.07 | 5.81
19 | O=C(COc1nonc1/C(=N/O)NC1Cc2ccc(F)cc21)NCC(O)CO (stereo not shown) [Example 12, N-(2,3-dihydroxypropyl)-2-({4-[N-(4-fluorobicyclo[4.2.0]octa-1,3,5-trien-7-yl)-N′-hydroxycarbamimidoyl]-1,2,5-oxadiazol-3-yl}oxy)acetamide] | 6.04 | 6.15
20 | C[C@H](O)CNC(=O)COc1nonc1/C(=N/O)N[C@H]1Cc2ccc(F)cc21 [Example 9, 2-[(4-{N-[(7S)-4-fluorobicyclo[4.2.0]octa-1,3,5-trien-7-yl]-N′-hydroxycarbamimidoyl}-1,2,5-oxadiazol-3-yl)oxy]-N-[(2S)-2-hydroxypropyl]acetamide] | 6.21 | 6.38
